Test results: ChEMBL document CHEMBL1148157, “An analysis of cytotoxic botanical formulations used in the traditional medicine of ancient Persia as abortifacients” (J Nat Prod, 2004)
In brackets after ≈: the same amount, converted by molar mass.

Assays:
Assay type in all cases: functional, cell-based
[1] = Growth inhibition of human breast cancer cells; conditions: Cancer cell lines
[2] = Growth inhibition of human lung cancer cells; conditions: Cancer cell lines
[3] = Growth inhibition of human colon cancer cells; conditions: Cancer cell lines
[4] = Growth inhibition of human CNS cancer cells; conditions: Cancer cell lines
P388 = assay: Growth inhibition of mouse P388 cells
HT-29 = assay: Growth inhibition of human HT29 cells
[5] = Growth inhibition of human prostate cancer cells; conditions: cancer cell lines

With `CC(=O)OC(C)(C)/C=C/C(=O)[C@](C)(O)[C@H]1[C@H](O)C[C@@]2(C)[C@@H]3CC=C4[C@H](C[C@H](O)C(=O)C4(C)C)[C@]3(C)C(=O)C[C@]12C` [CUCURBITACIN B] the IC50 [1] was < 400 nM, the IC50 [2] was < 400 nM and the IC50 [3] was < 400 nM. For the same compound, the IC50 [4] was < 400 nM.

With `CC(C)(O)/C=C/C(=O)[C@](C)(O)[C@H]1[C@H](O)C[C@@]2(C)[C@@H]3CC=C4[C@@H](C=C(O)C(=O)C4(C)C)[C@]3(C)C(=O)C[C@]12C` [CUCURBITACIN I] the IC50 [1] was < 400 nM, the IC50 [2] was < 400 nM and the IC50 [3] was < 400 nM. For the same compound, the IC50 [4] was < 400 nM.

`COc1cc([C@@H]2c3cc4c(cc3C[C@H]3COC(=O)[C@@H]32)OCO4)cc(OC)c1OC` [DESOXYPODOPHYLLOTOXIN] showed an IC50 (P388) of 2.5 ng/mL (≈ 6.27 nM) and an IC50 (HT-29) of 2.5 ng/mL (≈ 6.27 nM).

With `CC(C)(O)/C=C/C(=O)[C@](C)(O)[C@H]1[C@H](O)C[C@@]2(C)[C@@H]3CC=C4[C@@H](C[C@H](O)C(=O)C4(C)C)[C@]3(C)C(=O)C[C@]12C` [CUCURBITACIN D] the IC50 [1] was < 400 nM, the IC50 [2] was < 400 nM and the IC50 [3] was < 400 nM. The IC50 [4] was < 400 nM.

`COc1cc([C@@H]2c3cc4c(c(O)c3C[C@H]3COC(=O)[C@@H]32)OCO4)cc(OC)c1OC` [BETA-PELTATIN A] showed an IC50 (P388) of 2.5 ng/mL (≈ 6.03 nM) and an IC50 (HT-29) of 2.5 ng/mL (≈ 6.03 nM).

With `CC(=O)OC(C)(C)/C=C/C(=O)[C@](C)(O)[C@H]1[C@H](O)C[C@@]2(C)[C@@H]3CC=C4[C@@H](C=C(O)C(=O)C4(C)C)[C@]3(C)C(=O)C[C@]12C` [CUCURBITACIN E] the IC50 [1] was < 400 nM, the IC50 [2] was < 400 nM and the IC50 [3] was < 400 nM. The IC50 [4] was < 400 nM and the IC50 [5] was 7 nmol.
